Test results reported in ChEMBL document CHEMBL1201862, “PubChem BioAssay data set” (2004).
Calls of active or inactive are those of the source.

Experiments:
HEK293 [1] = assay: cells; conditions: Homo sapiens
HEK293 [2] = assay: cells; conditions: Homo sapiens; remark: listed apart in the source
[3] = inhibitors of firefly luciferase expression or activity, dose response, H4 neuroglioma cells, luminescence (AID 1990); format: functional, cell-based
[4] = Luminescence Cell-Based Dose Response HTS to Identify Inhibitors of 5'UTR Stem-Loop Driven Prion Protein mRNA Translation in H4 Neuroglioblastoma Cells. [Related pubchem assays: 1827 (Project Summary), 1813 (Primary HTS)]; format: functional
[5] = inhibitors of SNCA 5'UTR-driven reporter translation, confirmation, H4 neuroglioma cells, luminescence (AID 1988); format: functional, cell-based
[6] = CEM21 lymphoblast cell cytotoxicity, dose response, cytotoxicity control for viral fusion inhibitor project, CellTiter-Glo luminescence, cherry-picked (AID 652042); format: functional, cell-based;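 note: potency for signal decrease meaning cytotoxicity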
[7] = off-target signal loss in HeLa-CEM21 co-culture – HeLa F-luc CTL cells, cherry-picked, counter-screen for HIV-1 Env fusion inhibitor project, dose response (AID 652040); format: functional, cell-based;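 note: potency for signal decrease marking cytotoxic or nonspecific inhibition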
[8] = inhibitors of HIV Env-driven cell fusion, dose response, cherry-pick (AID 652057); format: functional, cell-based
[9] = inhibitors of clade B AD8 Env fusion, dose response, cell-based, cherry-pick (AID 652062); format: functional;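 note: luciferase signal from cell-cell fusion driven by HIV-1 clade B AD8 Env; potency is for inhibitors of fusion seen as a drop in luminescence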
[10] = ZM109 Env clade C HIV-1 fusion inhibitors, dose response, HeLa effector, CEM target cells, luciferase, cherry-pick (AID 652058); format: functional, cell-based
A-375 [11] = assay: MITF: Counter assay: A375 proliferation Measured in Cell-Based System Using Plate Reader - 2084-03_Inhibitor_Dose_DryPowder_Activity. [Related pubchem assays (depositor defined):AID488944]; format: functional; conditions: Homo sapiens
A-375 [12] = assay: A375 melanoma cell viability reduction, dose response, counter-screen for MITF modulator project, cherry-pick samples, set 2 (AID 540335); format: functional, cell-based; conditions: Homo sapiens
[13] = Vero E6 cell cytotoxicity, dose response, cytotoxicity control for non-replicating M. tuberculosis project, secondary assay (AID 492998); format: functional, VeroE6; conditions: Vero C1008
cells = format: functional
[14] = biological target: T1, Microphthalmia-associated transcription factor (Homo sapiens, UniProt O75030); assay: TRPM1 promoter luciferase signal decrease, dose response, MITF inhibitor project, cell-based, SK-MEL-5, cherry-picked, set 3 (AID 493073); format: functional
T1 sequence (O75030 whole entry): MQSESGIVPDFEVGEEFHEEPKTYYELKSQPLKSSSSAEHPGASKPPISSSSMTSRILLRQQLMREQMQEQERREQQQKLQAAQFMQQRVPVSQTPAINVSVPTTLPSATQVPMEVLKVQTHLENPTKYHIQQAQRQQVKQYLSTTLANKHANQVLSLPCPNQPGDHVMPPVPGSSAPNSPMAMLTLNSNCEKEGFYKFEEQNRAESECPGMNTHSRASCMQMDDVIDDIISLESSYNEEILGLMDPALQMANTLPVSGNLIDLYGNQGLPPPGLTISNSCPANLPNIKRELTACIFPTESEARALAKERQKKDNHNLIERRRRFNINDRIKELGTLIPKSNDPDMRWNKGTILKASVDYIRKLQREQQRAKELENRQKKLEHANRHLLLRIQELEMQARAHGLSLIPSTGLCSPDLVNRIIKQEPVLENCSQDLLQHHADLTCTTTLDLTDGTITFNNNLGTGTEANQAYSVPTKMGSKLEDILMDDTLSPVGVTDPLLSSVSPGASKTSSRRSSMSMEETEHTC

[15] = biological target: Heat shock protein HSP 90-alpha (Homo sapiens, UniProt P07900); format: functional, organism-based
[16] = biological target: Intestinal-type alkaline phosphatase (Homo sapiens, UniProt P09923); assay: inhibition of human intestinal alkaline phosphatase – biochemical, dose response (AID 488876); format: functional
[17] = biological target: T2, Alkaline phosphatase, tissue-nonspecific isozyme (Homo sapiens, UniProt P05186); assay: TNAP enzyme inhibition by screening hits, dose response, selectivity assay for mouse IAP inhibitor project, biochemical, human TNAP, uHTS hits (AID 488906); format: functional
T2 sequence (P05186 whole entry): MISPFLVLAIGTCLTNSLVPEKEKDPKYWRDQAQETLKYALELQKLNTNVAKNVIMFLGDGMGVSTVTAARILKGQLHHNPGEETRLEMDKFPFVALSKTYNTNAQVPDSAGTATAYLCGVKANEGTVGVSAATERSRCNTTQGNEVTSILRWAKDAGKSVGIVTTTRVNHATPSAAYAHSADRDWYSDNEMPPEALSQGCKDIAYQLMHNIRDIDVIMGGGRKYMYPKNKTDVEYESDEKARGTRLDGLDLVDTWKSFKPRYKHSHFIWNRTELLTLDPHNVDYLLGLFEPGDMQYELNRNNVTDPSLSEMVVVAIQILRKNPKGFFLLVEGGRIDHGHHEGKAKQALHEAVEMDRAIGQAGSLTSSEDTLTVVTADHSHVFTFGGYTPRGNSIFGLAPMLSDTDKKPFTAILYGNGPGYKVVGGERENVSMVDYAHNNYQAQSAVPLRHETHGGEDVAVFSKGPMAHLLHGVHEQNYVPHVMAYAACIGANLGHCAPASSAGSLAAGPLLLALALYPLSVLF

[18] = microbe, parasite or virus in culture; format: functional; conditions: Mycobacterium tuberculosis
[19] = biological target: Intestinal-type alkaline phosphatase (Mus musculus, UniProt P24822); assay: PubChem AID 488785; format: functional
[20] = THP-1 cell cytotoxicity, dose response, cytotoxicity control for non-replicating M. tuberculosis project (AID 489025); format: functional

Chain of Intestinal-type alkaline phosphatase (Mus musculus, UniProt P24822) (P24822 whole entry): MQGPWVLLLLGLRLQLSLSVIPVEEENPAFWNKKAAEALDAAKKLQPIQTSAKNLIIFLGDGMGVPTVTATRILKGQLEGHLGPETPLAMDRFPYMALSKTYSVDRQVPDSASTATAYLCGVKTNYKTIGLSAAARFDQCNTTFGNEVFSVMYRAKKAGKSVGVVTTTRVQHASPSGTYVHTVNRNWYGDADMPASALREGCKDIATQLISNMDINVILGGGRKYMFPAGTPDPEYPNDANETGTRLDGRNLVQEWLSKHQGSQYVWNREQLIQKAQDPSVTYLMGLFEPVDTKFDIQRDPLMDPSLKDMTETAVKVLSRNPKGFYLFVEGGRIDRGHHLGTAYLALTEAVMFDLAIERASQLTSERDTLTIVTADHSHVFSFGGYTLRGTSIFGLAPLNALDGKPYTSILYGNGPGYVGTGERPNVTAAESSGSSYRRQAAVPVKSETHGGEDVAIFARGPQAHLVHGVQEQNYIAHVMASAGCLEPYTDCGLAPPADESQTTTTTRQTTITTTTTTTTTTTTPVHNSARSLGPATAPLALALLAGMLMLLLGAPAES
Chain of Intestinal-type alkaline phosphatase (Homo sapiens, UniProt P09923) (P09923 whole entry): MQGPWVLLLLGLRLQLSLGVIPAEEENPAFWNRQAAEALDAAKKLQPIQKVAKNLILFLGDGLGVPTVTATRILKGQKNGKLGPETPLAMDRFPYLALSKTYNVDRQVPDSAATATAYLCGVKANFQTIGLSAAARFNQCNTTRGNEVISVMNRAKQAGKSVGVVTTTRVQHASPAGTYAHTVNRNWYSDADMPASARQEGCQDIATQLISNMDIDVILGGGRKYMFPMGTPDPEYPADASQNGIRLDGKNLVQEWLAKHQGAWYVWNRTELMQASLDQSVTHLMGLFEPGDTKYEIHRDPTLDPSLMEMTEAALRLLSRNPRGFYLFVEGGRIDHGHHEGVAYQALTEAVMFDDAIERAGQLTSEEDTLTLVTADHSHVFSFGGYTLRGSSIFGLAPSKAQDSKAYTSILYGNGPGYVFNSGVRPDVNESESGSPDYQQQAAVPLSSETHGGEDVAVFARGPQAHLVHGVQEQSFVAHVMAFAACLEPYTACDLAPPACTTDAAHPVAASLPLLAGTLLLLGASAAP

Q: Which results are given for COc1ccc(OC)c(-c2cc(C(=O)Nc3c(C)nn(Cc4ccccc4)c3C)no2)c1?
A: EC50 (HEK293 [1]): > 59.6 µM (inactive); EC50 (HEK293 [2]): > 59.6 µM (inactive)

Q: What does the source list for CCCCn1c(SCc2ccc(Cl)cc2)nc2c1c(=O)[nH]c(=O)n2C?
A: EC50 [3]: 15.8 µM (active); EC50 [4]: 16.2 µM (active); EC50 (HEK293 [1]): > 59.6 µM (inactive); EC50 [5]: 17 µM (active); EC50 (HEK293 [2]): > 59.6 µM (inactive)

Q: What does the source list for COc1ccc(CCN2C(=O)c3[nH]nc(-c4ccccc4O)c3C2c2ccccc2)cc1OC (stereo not given)?
A: AC50 [6]: 52.7 µM (active); AC50 [7]: 0.929 µM (active); AC50 [8]: 0.376 µM (active); AC50 [9]: 0.621 µM (active); EC50 (HEK293 [1]): > 59.7 µM (inactive); EC50 (HEK293 [2]): > 59.7 µM (inactive); AC50 [10]: 0.625 µM (active)

Q: For Cc1ccc(-c2nc(C#N)c(NCc3ccco3)o2)cc1, which AC50 (A-375 [11]) is on record?
A: > 35 µM (active)

Q: And the AC50 (A-375 [12])?
A: > 35 µM (active)

Q: With O=C(N/N=C/c1ccc([N+](=O)[O-])o1)c1sc2ccccc2c1Cl as the compound, how does the AC50 (A-375 [11]) read?
A: > 11 µM (active)

Q: And the CC50 [13]?
A: > 20 µM (active)

Q: And the IC50 (cells)?
A: 2.18 µM (active)

Q: And the AC50 [14]?
A: 4.61 µM (active)

Q: And the AC50 [15]?
A: 4.4 µM (active)

Q: And the IC50 [16]?
A: > 100 µM (inactive)

Q: And the IC50 [17]?
A: > 100 µM (inactive)

Q: What about the CC50 [18] of the same compound?
A: 20.2 µM (active)

Q: What about the IC50 [19] of the same compound?
A: 7.89 µM (active)

Q: What about the CC50 [20] of the same compound?
A: 19.1 µM (active)

Q: What about the AC50 (A-375 [12]) of the same compound?
A: > 11 µM (active)

Q: Which AC50 (A-375 [11]) does the source give for CC1CCN(Cc2nc(-c3ccc(Cl)cc3)no2)CC1 here?
A: > 35 µM (active)

Q: And the AC50 [14]?
A: 7.62 µM (active)

Q: What about the AC50 (A-375 [12]) of the same compound?
A: > 35 µM (active)
